Counter-ions that a name gives are not always drawn. Like-named read-outs stand apart in the source and are kept apart here.
Target: T1, human-derived receptor TLR7 (Homo sapiens, UniProt Q9NYK1)
T1 construct: host or cells: HEK-Blue hTLR7 cells (HEK293-derived reporter line)
T1 sequence (Q9NYK1 27-1049): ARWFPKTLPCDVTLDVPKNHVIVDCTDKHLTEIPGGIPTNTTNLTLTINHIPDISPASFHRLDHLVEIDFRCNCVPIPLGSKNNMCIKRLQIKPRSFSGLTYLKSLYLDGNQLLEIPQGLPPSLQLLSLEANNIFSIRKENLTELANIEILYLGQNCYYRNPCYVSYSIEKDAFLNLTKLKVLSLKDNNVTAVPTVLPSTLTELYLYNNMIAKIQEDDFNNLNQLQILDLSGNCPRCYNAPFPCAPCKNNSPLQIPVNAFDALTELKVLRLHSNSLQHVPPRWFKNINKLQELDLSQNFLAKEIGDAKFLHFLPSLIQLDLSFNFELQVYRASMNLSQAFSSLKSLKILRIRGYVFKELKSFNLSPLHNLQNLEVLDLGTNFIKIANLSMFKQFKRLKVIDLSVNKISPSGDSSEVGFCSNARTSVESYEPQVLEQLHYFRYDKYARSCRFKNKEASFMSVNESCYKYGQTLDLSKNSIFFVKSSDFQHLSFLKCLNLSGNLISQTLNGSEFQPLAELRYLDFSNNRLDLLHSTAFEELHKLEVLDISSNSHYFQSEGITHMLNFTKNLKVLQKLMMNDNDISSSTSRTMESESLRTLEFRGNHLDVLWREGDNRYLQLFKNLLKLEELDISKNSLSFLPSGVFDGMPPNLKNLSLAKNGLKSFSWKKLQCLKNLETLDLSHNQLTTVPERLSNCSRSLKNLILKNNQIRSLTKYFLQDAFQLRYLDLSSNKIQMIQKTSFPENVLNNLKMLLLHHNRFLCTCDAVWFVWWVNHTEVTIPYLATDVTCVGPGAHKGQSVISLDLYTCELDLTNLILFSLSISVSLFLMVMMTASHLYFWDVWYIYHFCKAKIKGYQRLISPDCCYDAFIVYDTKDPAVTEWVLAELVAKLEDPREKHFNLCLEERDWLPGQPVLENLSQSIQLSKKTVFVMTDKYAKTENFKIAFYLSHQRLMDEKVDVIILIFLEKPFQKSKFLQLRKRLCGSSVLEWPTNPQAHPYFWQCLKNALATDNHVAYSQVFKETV
Test: Assay on agonistic activity for human-derived receptor TLR7 (HEK-Blue hTLR7 cells, HEK-Blue Detection Medium)
Assay type: cell-based
Settings: 16 h incubation, absorbance at 655 nm
Experimental: HEK-Blue™ hTLR7 cells (InvivoGen, hkb-htlr7) were cultured in a DMEM complete medium (Gibco, 12100) containing 10% FBS (Invitrogen, 10099141), 1% P/S (Invitrogen, 15140122), 10 μg/mL Blasticidin (InvivoGen, ant-bl-1), 100 μg/mL Zeocin (InvivoGen, ant-zn-1), and 100 μg/mL Normocin (InvivoGen, ant-nr-1). The cells were cultured in an incubator at 37° C. with 5% CO2. When HEK-Blue™ hTLR7 cells reached a growth density of 70%-80%, cell passage was needed.
The agonistic activity for the human-derived receptor TLR7 by HEK-Blue™ hTLR7 cells was assayed by HEK-Blue™ Detection Medium (InvivoGen, hd-det2). First, a bag of HEK-Blue™ Detection Medium powder was dissolved in 50 mL of ultra-pure sterile water for complete dissolution, and then the dissolved medium was filtered into a new 50 mL centrifuge tube through a 0.22 μm filter. Finally, antibiotics were added into the filtered detection medium until the final concentration was 1% for P/S and 100 μg/mL for Normocin. HEK-Blue™ Detection Medium was pre-heated to 37° C. in advance on the day of the assay on the activity for the TLR7 receptor, and the temperature was always maintained at 37° C.
The compound powder was dissolved in 100% DMSO (Sigma, D2650-100ML) to obtain a 10 mM stock solution, and the compound was completely dissolved by shaking with an oscillator. The stock solution of the compound was subjected to a 5-fold dilution to 2 mM with 100% DMSO. This was followed by a 3-fold serial dilution for a total of 8 concentration gradients. Then, each of the concentration gradients was subjected to a 20-fold dilution to 100 μM, 33.3 μM, 11.1 μM, 3.7 μM, 1.23 μM, […], 0.114 μM, and 0.05 μM using HEK-Blue™ Detection Medium. 20 μL of each of the dilutions was added to a 96-well cell culture plate (Corning, 3599).
On the day of the assay on the agonistic activity for the human-detived receptor TLR7, HEK-Blue™ hTLR7 cells has a growth density of 70%-80%, and the cell medium was removed. 1 mL of cell dissociation buffer (Gibco, 13151-014) was added to each 100 mm cell culture dish, and the cells were incubated in an incubator at 37° C. for 5 min. The cells were pipetted using a DMEM cell medium to obtain a single cell suspension, which was then centrifuged at 1000 rpm for 10 min to collect the cell pellet. The cell pellet was resuspended with HEK-Blue™ Detection Medium pre heated to 37° C. The cells were counted and diluted to 220,000 cells/mL. Finally, 180 μL of cell suspension (40,000 cells/well) was added to each well of the 96-well cell culture plate to which the compound had been added, and the cell suspension was mixed with the compound using a pipettor. Final concentrations of the compound were 10 μM, 3.3 μM, 1.1 μM, 0.37 μM, 0.12 μM, 0.04 μM, 0.01 μM, and 0.005 μM. After incubation in an incubator at 37° C. for 16 h, the absorbance was read at 655 nm using an M5e microplate reader (MD, USA).
The EC50 of the compound was calculated using the software GraphPad Prism (GraphPad Software, USA). The background reading of the detection culture was subtracted from the absorbance readings at 655 nm of all wells of the 96-well plate, the ratio of each well to the negative control well (the well without the compound) was calculated, and then the percentage of the ratio of each well to the positive control well (the well treated with 10 μM positive compound), i.e., the percentage of activity, was calculated. Finally, the sigmoidal dose-response (variable slope) curve between the percentage of activity and the concentration of the compound was calculated using the software GraphPad Prism to calculate the EC50 of the compound. […]

Row | EC50 (read-out: hTLR7 EC50) | EC50 (read-out: EC50) | Structure (SMILES)
1 | > 10000 nM | – | COc1nc2c(N)nc3ccccc3c2n1Cc1ccc(CN2CCCC2)cc1 [Comparative Example 1, 2-methoxy-1-((4-((pyrrolidin-1-yl)methyl)phenyl)methyl)-1H-imidazo[4,5-c]quinolin-4-amine trifluoroacetate, reference compound]
2 | 55 nM | < 50 nM | CSc1nc2c(N)nc3ccccc3c2n1Cc1ccc(CN2CCCC2)cc1 [Example 40, 2-(methylthio)-1-(4-(pyrrolidin-1-ylmethyl)benzyl)-1H-imidazo[4,5-c]quinoline-4-amine]
3 | 43.6 nM | < 50 nM | CSc1nc2c(N)nc3ccccc3c2n1Cc1ccc(N2CCN(C)CC2)nc1 [Example 199]
4 | 28.4 nM | < 50 nM | COc1cc(CN(C)C)ccc1Cn1c(SC)nc2c(N)nc3ccccc3c21 [Example 240]

Source: patent publication US20240150346A1, “CLASS OF HETEROAROMATIC COMPOUND, PREPARATION METHOD THEREFOR AND USE THEREOF” (INNOVSTONE THERAPEUTICS LIMITED, priority 2021, published 2024)
